In patent US9833497B2, “Human originated EGF domain proteins and use of the same” (CHENGDU SOURCEBIO LIMITED-LIABILITY COMPANY, priority 2013, dated 2017):

How the values were obtained:
Assay type in all cases: cell-based
E. coli DH5α = assay: Antibacterial activity: MIC and growth curve against E. coli DH5α in 96-well plate; conditions: minimal inhibitory concentration against E. coli DH5α; 96-well plate, 5×10^5 CFU/mL, 37° C., judged after 8 h
Summary of the method: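 Log-phase bacteria (OD600 ~0.5) resuspended in LB at 5×10^5 CFU/mL, exposed to recombinant protein at 50, 25, 12.5 μg/mL final in triplicate, 37 °C shaking at 175 rpm. OD600 read every 30 min; MIC is lowest concentration showing no growth.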

E. coli BL21 = assay: MIC against Gram-negative bacteria: E. coli BL21; conditions: 96-well plate, 5×10^5 CFU/mL, 37° C., 10 h
Summary of the method: (§1)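 Bacteria grown in LB at 37° C to McFarland 0.5, resuspended and seeded at 5×10^5 CFU/mL in 96-well plates. Purified human EGF-domain proteins two-fold serially diluted, triplicate wells; cultured at 37° C, shaking 175 rpm. MIC = lowest protein concentration with no growth.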

Pseudomonas aeruginosa = assay: MIC against Gram-negative bacteria: Pseudomonas aeruginosa; conditions: 96-well plate, 5×10^5 CFU/mL, 37° C., 10 h
Summary of the method: as §1

Klebsiella pneumonia = assay: MIC against Gram-negative bacteria: Klebsiella pneumonia; conditions: 96-well plate, 5×10^5 CFU/mL, 37° C., 10 h
Summary of the method: as §1

Enterobacter cloacae = assay: MIC against Gram-negative bacteria: Enterobacter cloacae; conditions: 96-well plate, 5×10^5 CFU/mL, 37° C., 10 h
Summary of the method: as §1

Aeromonas hydrophila = assay: MIC against Gram-negative bacteria: Aeromonas hydrophila; conditions: 96-well plate, 5×10^5 CFU/mL, 37° C., 10 h
Summary of the method: as §1

Citrobacter diversus = assay: MIC against Gram-negative bacteria: Citrobacter diversus; conditions: 96-well plate, 5×10^5 CFU/mL, 37° C., 10 h
Summary of the method: as §1

Moraxella catarrhalis = assay: MIC against Gram-negative bacteria: Moraxella catarrhalis; conditions: 96-well plate, 5×10^5 CFU/mL, 37° C., 10 h
Summary of the method: as §1

Proteus mirabilis = assay: MIC against Gram-negative bacteria: Proteus mirabilis; conditions: 96-well plate, 5×10^5 CFU/mL, 37° C., 10 h
Summary of the method: as §1

Proteus vulgaris = assay: MIC against Gram-negative bacteria: Proteus vulgaris; conditions: 96-well plate, 5×10^5 CFU/mL, 37° C., 10 h
Summary of the method: as §1

Serratia marcescens = assay: MIC against Gram-negative bacteria: Serratia marcescens; conditions: 96-well plate, 5×10^5 CFU/mL, 37° C., 10 h
Summary of the method: as §1

Substance	MIC (E. coli DH5α) [µg/mL]	MIC against E. coli BL21 (E. coli BL21) [µg/mL]	MIC against P. aeruginosa (Pseudomonas aeruginosa) [µg/mL]	MIC against K. pneumonia (Klebsiella pneumonia) [µg/mL]	MIC against E. cloacae (Enterobacter cloacae) [µg/mL]	MIC against A. hydrophila (Aeromonas hydrophila) [µg/mL]	MIC against C. diversus (Citrobacter diversus) [µg/mL]	MIC against M. catarrhalis (Moraxella catarrhalis) [µg/mL]	MIC against P. mirabilis (Proteus mirabilis) [µg/mL]	MIC against P. vulgaris (Proteus vulgaris) [µg/mL]	MIC against S. marcescens (Serratia marcescens) [µg/mL]
PRT549 (CDCSGNGDPNLLFSDCDPLTGACRGCLRHTTGPRCEICAPGFYGNALLPGNCTR; listed as Homo sapiens)	12.5	50	12.5	50	12.5	50	12.5	25	12.5	25	12.5
PRT552 (CACGPAAEGSECHPQSGQCHCRPGTMGPQCRECAPGYWGLPEQGCRR; listed as Homo sapiens)	25	100	50	12.5	50	12.5	50	25	12.5	25	12.5
PRT553 (CQCPGGRCDPHTGRCNCPPGLSGERCDTCSQQHQVPVPGGPVGHSIHCEV; listed as Homo sapiens)	25	50	25	12.5	25	50	25	12.5	25	50	25
PRT554 (CNCESDFTDGTCEDLTGRCYCRPNFSGERCDVCAEGFTGFPSCYPT; listed as Homo sapiens)	12.5	50	12.5	50	25	12.5	25	50	25	12.5	25
PRT555 (CDCSAAGTQGNACRKDPRVGRCLCKPNFQGTHCELCAPGFYGPGCQP; listed as Homo sapiens)	50	25	12.5	25	50	25	12.5	25	50	25	12.5
PRT556 (CQCSSPGVADDRCDPDTGQCRCRVGFEGATCDRCAPGYFHFPLCQL; listed as Homo sapiens)	25	50	12.5	50	12.5	50	25	12.5	25	12.5	25
PRT557 (CGCSPAGTLPEGCDEAGRCLCQPEFAGPHCDRCRPGYHGFPNCQA; listed as Homo sapiens)	12.5	25	12.5	25	12.5	25	12.5	25	12.5	25	12.5
PRT558 (CTCDPRGALDQLCGAGGLCRCRPGYTGTACQECSPGFHGFPSCVP; listed as Homo sapiens)	12.5	25	12.5	25	50	25	12.5	25	50	25	12.5
PRT559 (CHCSAEGSLHAACDPRSGQCSCRPRVTGLRCDTCVPGAYNFPYCEA; listed as Homo sapiens)	25	50	25	12.5	25	50	25	12.5	25	50	25
PRT560 (GSCHPAGLAPVDPALPEAQVPCMCRAHVEGPSCDRCKPGFWGLSPSNPEGCTR; listed as Homo sapiens)	12.5	25	50	25	50	25	50	25	50	50	50
PRT562 (CQCHNNIDTTDPEACDKETGRCLKCLYHTEGEHCQFCRFGYYGDALQQDCRK; listed as Homo sapiens)	50	25	50	25	50	25	50	25	12.5	25	50
PRT563 (CVCNYLGTVQEHCNGSDCQCDKATGQCLCLPNVIGQNCDRCAPNTWQLASGTGCDP; listed as Homo sapiens)	25	12.5	25	50	25	12.5	25	50	25	12.5	25
PRT567 (CTCDPAGSQNEGICDSYTDFSTGLIAGQCRCKLNVEGEHCDVCKEGFYDLSSEDPFGCKS; listed as Homo sapiens)	50	25	12.5	25	50	25	12.5	50	12.5	12.5	12.5
PRT569 (CDCDLGGALNNSCFAESGQCSCRPHMIGRQC; listed as Homo sapiens)	25	12.5	25	12.5	12.5	25	100	25	12.5	25	12.5
PRT573 (CPCPDGPDSGRQFARSCYQDPVTLQLACVCDPGYIGSRCDDCASGYFGNPSEVGGSCQP; listed as Homo sapiens)	25	12.5	25	12.5	25	12.5	12.5	50	12.5	50	12.5
PRT576 (CTCNLLGTNPQQCPSPDQCHCDPSSGQCPCLPNVQGPSCDRCAPNFWNLTSGHGCQP; listed as Homo sapiens)	12.5	12.5	12.5	12.5	12.5	12.5	12.5	50	12.5	50	25
